Broadly, the IC50 is the concentration at which inhibition is half-maximal. A lower IC50 goes with greater potency.

The values that follow come from patent US20140005165A1, “SUBSTITUTED 3-AZABICYCLO[3.1.0]HEXANE DERIVATIVES USEFUL AS CCR2 ANTAGONISTS” (priority 2011, published 2014).

T1 sequence (P41597 whole entry): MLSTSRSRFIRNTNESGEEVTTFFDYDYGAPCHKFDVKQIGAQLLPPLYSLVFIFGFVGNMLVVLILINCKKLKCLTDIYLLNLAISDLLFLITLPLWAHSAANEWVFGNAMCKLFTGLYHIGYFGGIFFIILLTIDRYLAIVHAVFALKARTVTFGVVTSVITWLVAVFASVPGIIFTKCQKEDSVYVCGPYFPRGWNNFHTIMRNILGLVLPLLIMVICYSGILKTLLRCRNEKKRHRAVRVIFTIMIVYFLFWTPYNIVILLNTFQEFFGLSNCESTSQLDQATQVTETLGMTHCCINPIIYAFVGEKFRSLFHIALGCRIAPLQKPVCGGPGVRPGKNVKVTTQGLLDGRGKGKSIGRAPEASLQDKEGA

The first assay concerns the target T1, human CCR2 (Homo sapiens, UniProt P41597).
T1 construct: expressed in transfected cells; host or cells: Ba/F3 cells (membrane preparation)
The assay is described as follows: CCR2 Membrane Binding Assay (SPA radio-ligand binding, 125I-rhMCP-1). Particulars: membranes from Ba/F3 cells transfected with human CCR2; 0.03 nM 125I-rhMCP-1; 4 h room temperature. The method in brief:
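SPA competition binding: membranes from Ba/F3 cells expressing human CCR2, pre-bound to WGA SPA beads, incubated 4 h at room temperature with compounds (1% DMSO final) and 0.03 nM 125I-rhMCP-1 in pH 7.4 HEPES buffer with MgCl2, NaCl, CaCl2, BSA and saponin. IC50 and slope derived from bound counts.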
As to `COc1ccc(C2(O)CCC(N3C[C@@H]4[C@H](C3)[C@H]4C(=O)NCC(=O)Nc3cccc(C(F)(F)F)c3)CC2)cn1` (stereo partly shown) [Compound 147], the IC50 was determined as 4.5 nM. For the compound `Cn1ncc2cc([C@H]3CC[C@@H](N4C[C@@H]5[C@H](C4)[C@H]5C(=O)NCC(=O)Nc4cccc(C(F)(F)F)c4)CC3)ccc21` [Compound 150], the IC50 was found to be 6.7 nM. Compound `O=C(CNC(=O)[C@H]1[C@@H]2CN(C3CCC(O)(c4ccc5c(c4)OCO5)CC3)C[C@@H]21)Nc1cccc(C(F)(F)F)c1` (stereo partly shown) [Compound 152] returned an IC50 of 10 nM. As to `COc1ncc([C@H]2CC[C@@H](N3C[C@@H]4[C@H](C3)[C@H]4C(=O)NCC(=O)Nc3cccc(C(F)(F)F)c3)CC2)c(OC)n1` [Compound 153], the IC50 turned out to be 4.5 nM. On the same count and under the same terms, in the case of `O=C(CNC(=O)[C@H]1[C@@H]2CN([C@H]3CC[C@@H](NC(=O)OCc4ccccc4)CC3)C[C@@H]21)Nc1cccc(C(F)(F)F)c1` [Compound 154] it was 8.3 nM; in that of `O=C(CNC(=O)[C@H]1[C@@H]2CN([C@H]3CC[C@@H](c4ccc(-c5ccccc5)cc4)CC3)C[C@@H]21)Nc1cccc(C(F)(F)F)c1` [Compound 156], 7.4 nM.

The same assay, now with this note: membranes from Ba/F3 cells transfected with human CCR2; 0.03 nM 125I-rhMCP-1; class symbols.
`O=C(CNC(=O)[C@H]1[C@@H]2CN([C@H]3CC[C@@H](Nc4ccc(F)c(F)c4)CC3)C[C@@H]21)Nc1cccc(C(F)(F)F)c1` [Compound 148] showed an IC50 below 50 nM. Still for that read-out and setting: in the case of `O=C(CNC(=O)[C@H]1[C@@H]2CN([C@H]3CC[C@H](Nc4ccc(F)c(F)c4)CC3)C[C@@H]21)Nc1cccc(C(F)(F)F)c1` [Compound 149] it was 201 to 700 nM. `Cn1ncc2cc([C@H]3CC[C@H](N4C[C@@H]5[C@H](C4)[C@H]5C(=O)NCC(=O)Nc4cccc(C(F)(F)F)c4)CC3)ccc21` [Compound 151] registered an IC50 of 51 to 200 nM. `O=C(CNC(=O)[C@H]1[C@@H]2CN([C@H]3CC[C@H](NC(=O)OCc4ccccc4)CC3)C[C@@H]21)Nc1cccc(C(F)(F)F)c1` [Compound 155] gave an IC50 of 201 to 700 nM. The compound `O=C(CNC(=O)[C@H]1[C@@H]2CN([C@H]3CC[C@@H](c4cnn(Cc5ccccc5)c4)CC3)C[C@@H]21)Nc1cccc(C(F)(F)F)c1` [Compound 157] displayed an IC50 below 50 nM. With `O=C(CNC(=O)[C@H]1[C@@H]2CN(CC3CC3)C[C@@H]21)Nc1cccc(C(F)(F)F)c1` [Compound 158], the “IC50 (nM)” value is “D (compounds with IC50 values between 701 nM and 110 nM are designated as D class compounds)”.

Turning to `O=C(CNC(=O)[C@H]1[C@@H]2CN([C@H]3CC[C@@H](c4ccc(OCc5ccccc5)cc4)CC3)C[C@@H]21)Nc1cccc(C(F)(F)F)c1` [Compound 160], the IC50 is below 50 nM. Regarding `O=C(CNC(=O)[C@H]1[C@@H]2CN([C@H]3CC[C@H](c4ccc(OCc5ccccc5)cc4)CC3)C[C@@H]21)Nc1cccc(C(F)(F)F)c1` [Compound 161], the IC50 lay within 201 to 700 nM. Compound `O=C(NCCc1cccc(C(F)(F)F)c1)C1[C@H]2CN(C3CCCOC3)C[C@@H]12` (stereo partly shown) [Compound 162] returned an IC50 of 201 to 700 nM. `O=C(CNC(=O)[C@H]1[C@@H]2CN([C@H]3CC[C@@H](c4cc(Br)c(O)c(Br)c4)CC3)C[C@@H]21)Nc1cccc(C(F)(F)F)c1` [Compound 163]: the IC50 was below 50 nM.
